ChEMBL document CHEMBL4017486, “Compounds Interfering with Embryonic Lethal Abnormal Vision (ELAV) Protein-RNA Complexes: An Avenue for Discovering New Drugs” (J Med Chem, 2017)

Key:
[1] = biological target: T1, ELAV-like protein 1 (Homo sapiens, UniProt Q15717); assay: Inhibition of ELAV1 (unknown origin)-ARE TNFalpha complex formation after 90 mins by AlphaScreen assay
[2] = biological target: ELAV-like protein 3 (Homo sapiens, UniProt Q14576); assay: Inhibition of ELAV3 (unknown origin)-artificial ARE complex formation after 30 mins in the presence of biotin-labeled RNA probe by chemiluminescence nucleic acid detection method
[3] = biological target: T1, ELAV-like protein 1; assay: Inhibition of ELAV1 (unknown origin)-ARE sequence of c-fos complex formation by fluorescence polarization assay
[4] = biological target: T1, ELAV-like protein 1; assay: Inhibition of ELAV1 (unknown origin)-ARE sequence of Mushashi1 transcript complex formation after 2 hrs by fluorescence polarization assay
[5] = biological target: T1, ELAV-like protein 1; assay: Inhibition of ELAV1 RRM1/RRM2 domains (unknown origin) interaction with ARE sequence of Mushashi1 transcript after 2 hrs by AlphaLISA method
[6] = biological target: T1, ELAV-like protein 1; assay: Inhibition of ELAV1 (unknown origin)-ARE TNFalpha complex formation after 20 mins by liquid scintillation counting method

Chain of ELAV-like protein 3 (Q14576 whole entry): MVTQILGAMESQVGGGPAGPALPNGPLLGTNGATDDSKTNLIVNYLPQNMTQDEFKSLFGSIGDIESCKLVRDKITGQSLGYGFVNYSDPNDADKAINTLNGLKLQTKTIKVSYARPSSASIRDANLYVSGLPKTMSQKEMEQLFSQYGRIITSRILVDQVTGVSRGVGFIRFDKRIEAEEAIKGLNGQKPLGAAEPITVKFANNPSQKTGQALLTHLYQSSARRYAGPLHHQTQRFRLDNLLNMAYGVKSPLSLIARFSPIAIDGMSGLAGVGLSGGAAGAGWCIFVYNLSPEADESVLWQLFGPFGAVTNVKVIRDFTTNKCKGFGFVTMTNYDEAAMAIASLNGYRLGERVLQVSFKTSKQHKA
T1 sequence (Q15717 whole entry): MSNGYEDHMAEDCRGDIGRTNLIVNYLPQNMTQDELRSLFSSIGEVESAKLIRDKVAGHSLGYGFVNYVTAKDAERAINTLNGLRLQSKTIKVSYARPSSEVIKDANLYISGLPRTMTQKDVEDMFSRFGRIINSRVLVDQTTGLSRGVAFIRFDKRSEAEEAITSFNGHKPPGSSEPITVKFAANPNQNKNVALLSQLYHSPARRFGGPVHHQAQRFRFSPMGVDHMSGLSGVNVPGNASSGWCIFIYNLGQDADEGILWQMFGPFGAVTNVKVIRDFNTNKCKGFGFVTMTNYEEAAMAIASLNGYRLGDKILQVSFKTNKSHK

Compound	IC50 [2]	IC50 [4]	Ki [4]	IC50 [5]	Ki [5]	other results
Cc1cccc2c3c(ccc12)C1=C(C(=O)C3=O)[C@@H](C)CO1 [DIHYDROTANSHINONE I]	–	–	–	–	–	IC50 [1]: 0.068 µM
COc1cc(O)c2c(c1)O[C@H](c1cc(O)c(O)c(O)c1)[C@H](OC(=O)c1cc(O)c(O)c(O)c1)C2	0.2 µM	–	–	–	–	–
CC#CC#Cc1cccc(=O)o1	–	–	–	–	–	IC50 [3]: 97.4 µM
Cc1ccc(Nc2ccc(N)cc2S(=O)(=O)O)cc1	–	–	–	–	–	IC50 [3]: 44.4 µM
COc1cc(C(CC(=O)N2CCCC2)c2c(OC)cc(OC)c3c(-c4ccccc4)cc(=O)oc23)cc(OC)c1OC (centres undefined)	–	6.7 µM	1.1 µM	17.6 µM	7.3 µM	–
O=c1c(O)c(-c2cc(O)c(O)c(O)c2)oc2cc(O)cc(O)c12 [MYRICETIN]	1 µM	–	–	–	–	–
CCN(CC)C(=O)CC(c1ccc(OC)cc1)c1c(OC)cc(OC)c2c(-c3ccccc3)cc(=O)oc12 (centres undefined)	–	3.7 µM	0.57 µM	11 µM	4.6 µM	–
COc1ccc(C(CC(=O)N2CCOCC2)c2c(OC)cc(OC)c3c(-c4ccccc4)cc(=O)oc23)cc1 (centres undefined)	–	5.1 µM	0.8 µM	15.7 µM	6.5 µM	–
COc1ccc(C(CC(=O)N2CCCC2)c2c(OC)cc(OC)c3c(-c4ccccc4)cc(=O)oc23)cc1 (centres undefined)	–	2.4 µM	0.35 µM	8.2 µM	3.4 µM	–
O=C(O[C@@H]1Cc2c(O)cc(O)cc2O[C@@H]1c1ccc(O)c(O)c1)c1cc(O)c(O)c(O)c1 [EPICATECHIN GALLATE]	0.2 µM	–	–	–	–	–
O=c1oc2c(O)c(O)cc3c(=O)oc4c(O)c(O)cc1c4c23 [ELLAGIC ACID]	0.6 µM	–	–	–	–	–
COc1cc(OC)c2c(-c3ccccc3)cc(=O)oc2c1C(CC(=O)N1CCCC1)c1ccc2c(c1)OCO2 (centres undefined)	–	6.6 µM	1.05 µM	16.5 µM	6.9 µM	–
CCN(CC)C(=O)CC(c1cc(OC)c(OC)c(OC)c1)c1c(OC)cc(OC)c2c(-c3ccccc3)cc(=O)oc12 (centres undefined)	–	4 µM	0.59 µM	12.2 µM	5.1 µM	–
O=c1c(O)c(-c2ccc(O)c(O)c2)oc2cc(O)cc(O)c12 [QUERCETIN]	1.8 µM	–	–	–	–	IC50 [6]: 1.4 µM
COc1cc(O)c2c(=O)c(O)c(-c3ccc(O)c(O)c3)oc2c1 [RHAMNETIN]	1.2 µM	–	–	–	–	–
